Here are results for three compounds from publication PMC5539077, “Functional Characterization of a Missing Branch Component in Haematococcus pluvialis for Control of Algal Carotenoid Biosynthesis” (Frontiers in Plant Science, 2017).

One assay addresses T1, HpLCYB (Haematococcus lacustris, UniProt A0A1S6KDX2).
T1 construct: full ORF, 568 aa, expressed from pACCRT-EIB plasmid in carotenoid-accumulating E. coli DH5alpha; no tag told
T1 sequence (A0A1S6KDX2 1-568): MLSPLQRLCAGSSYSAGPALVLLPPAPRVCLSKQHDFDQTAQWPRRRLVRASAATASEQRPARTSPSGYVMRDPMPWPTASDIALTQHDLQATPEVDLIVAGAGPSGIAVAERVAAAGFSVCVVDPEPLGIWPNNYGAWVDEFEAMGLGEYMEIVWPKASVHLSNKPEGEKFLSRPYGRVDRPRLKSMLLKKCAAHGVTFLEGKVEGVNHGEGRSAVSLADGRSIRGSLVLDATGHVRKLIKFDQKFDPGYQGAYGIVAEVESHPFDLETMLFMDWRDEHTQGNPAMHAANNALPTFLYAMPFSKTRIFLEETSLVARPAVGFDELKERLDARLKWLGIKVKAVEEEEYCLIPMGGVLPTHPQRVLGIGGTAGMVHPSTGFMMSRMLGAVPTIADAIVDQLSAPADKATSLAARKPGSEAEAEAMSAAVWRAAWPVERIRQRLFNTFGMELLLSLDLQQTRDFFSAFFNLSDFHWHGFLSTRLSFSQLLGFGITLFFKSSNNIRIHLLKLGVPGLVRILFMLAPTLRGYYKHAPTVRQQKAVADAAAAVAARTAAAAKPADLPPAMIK
The assay is described as follows: E. coli complementation, UPLC product profile. The assay is classed as cell-based. To be noted: lycopene-accumulating E. coli DH5alpha (pACCRT-EIB-B), 30 then 25 °C; product beta-carotene.

Another assay has as its target T2, HpLCYE (Haematococcus lacustris, UniProt A0A0K1HSD1).
T2 construct: full ORF, 575 aa, codon-optimised, expressed from pACCRT-EIB plasmid in carotenoid-accumulating E. coli DH5alpha; no tag told
T2 sequence (A0A0K1HSD1 1-575): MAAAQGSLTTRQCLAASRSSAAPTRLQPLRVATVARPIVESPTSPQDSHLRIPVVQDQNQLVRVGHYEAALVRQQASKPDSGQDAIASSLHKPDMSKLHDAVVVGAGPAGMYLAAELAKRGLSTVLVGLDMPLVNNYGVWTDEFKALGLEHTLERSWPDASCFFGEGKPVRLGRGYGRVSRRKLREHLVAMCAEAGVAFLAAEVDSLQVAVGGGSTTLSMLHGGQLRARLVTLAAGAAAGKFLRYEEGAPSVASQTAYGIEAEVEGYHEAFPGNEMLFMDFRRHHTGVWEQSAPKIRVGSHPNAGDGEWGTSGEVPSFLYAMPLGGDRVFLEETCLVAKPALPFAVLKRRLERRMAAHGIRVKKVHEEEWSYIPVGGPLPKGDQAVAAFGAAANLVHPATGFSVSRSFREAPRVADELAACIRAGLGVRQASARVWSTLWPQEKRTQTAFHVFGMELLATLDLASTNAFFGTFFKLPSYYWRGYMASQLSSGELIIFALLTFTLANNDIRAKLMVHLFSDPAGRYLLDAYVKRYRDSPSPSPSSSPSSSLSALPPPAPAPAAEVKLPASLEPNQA
Description: E. coli complementation, UPLC product profile. It counts as cell-based. To be noted: 30 then 25 °C.

The target in the next assay is HpLCYB (purified) (Haematococcus lacustris, UniProt A0A1S6KDX2). The assay is described as follows: in vitro cyclase assay, UPLC. The assay is classed as biochemical. The settings on record: 50 mM gamma-carotene as printed, 0.1 M Tris-HCl pH 7.0, 10% glycerol, 5 mM DTT, 1 mM EDTA, 30 °C, 1 h; product beta-carotene.

As for `CC(C)=CCC/C(C)=C/C=C/C(C)=C/C=C/C(C)=C/C=C/C=C(C)/C=C/C=C(C)/C=C/C=C(\C)CCC=C(C)C` [lycopene], the “E. coli complementation, UPLC product profile” value at HpLCYB is “HpLCYB could cyclize both ends of lycopene to form β-carotene”; at HpLCYE (lycopene-accumulating E. coli DH5alpha (pACCRT-EIB-E), product delta-carotene), “HpLCYE cyclized only one end of lycopene to synthesize δ-carotene”.
As for `CC(C)=CCC/C(C)=C/C=C/C(C)=C/C=C/C(C)=C/C=C/C=C(C)/C=C/C=C(C)/C=C/C1=C(C)CCCC1(C)C` [γ-carotene], on HpLCYB (purified), the “in vitro cyclase assay, UPLC” value is given as “HpLCYB further cyclized γ-carotene to form β-carotene”.
Consider `CC(C)=CCC/C(C)=C/C=C/C(C)=C/C=C/C(C)=C/C=C/C=C(C)/C=C/C=C(\C)CC/C=C(\C)CCC=C(C)C` [neurosporene], for which, at HpLCYE (neurosporene-accumulating E. coli DH5alpha (pACCRT-EIBneurE), product alpha-zeacarotene), the “E. coli complementation, UPLC product profile” value was “neurosporene produced by pACCRT-EIBneur was probably transformed into α-, and β-zeacarotene, respectively”.
